The text below walks through data of patent publication EP0421419A2, “Tocotrienols in the treatment of hypercholesterolemia, hyperlipidemia and thromboembolic disorders” (Bristol-Myers Squibb Company, priority 1989, dated 1991).

Test [1] has as its system Cholesterol Synthesis in Isolated Rat Hepatocytes. Put plainly: Rat hepatocyte cholesterol biosynthesis model (14C-acetate incorporation into digitonin-precipitable sterols). Format: cell-based. As to conditions: rat and chicken hepatocyte system. Here is the method: Primary rat parenchymal hepatocytes were prepared from male Wistar rats (180-220 g) at mid-dark in the diurnal cycle by standard collagenase perfusion method as described previously. Ingebritsen et al. J. Biol. Chem., 254: 9986-9989, (1979). Aliquots of cells were suspended (100 mg in 2 ml) in Eagle's minimum essential medium (MEM) supplemented with 2% bovine albumin, and preincubated in a shaking water bath at about 37° under 95% O₂/5% CO₂ with compounds added as given in the data. […] Following a preincubation of about 15 to about 45 minutes as indicated, cholesterol synthesis in intact cells was assayed by 2-14C-acetate (1.8 mCi/mmol, 0.5 µCi/ml) incorporation for about 30 to about 60 minutes (previously shown to be time-linear) into total digitonin-precipitable sterols. […] Percent inhibition was calculated from the average of duplicates vs. triplicate vehicle controls conducted simultaneously.
The primary rat hepatocyte assay for cholesterol bio-synthesis inhibition was conducted as described in Example 2 except the preincubation was about 45 minutes and the 14C-acetate incorporation was about 30 minutes. The indicated compounds were purified from the same natural product source as the mixture used in Example 2. […] Two-component mixtures of the constituents separated from the tocotrienol mixture were tested under the conditions indentical to Table 2A.

Test [2] concerns Cholesterol Synthesis in HepG2 Cells. Put plainly: HepG2 cell culture model, 14C-acetate incorporation assay. Format: cell-based, human. As to conditions: for Rel. Potency: γ-Tocotrienol = 1.0; for IC50: Homo sapiens, HepG2, read-out: IC₅₀. Here is the method: HepG2 cells obtained from the American Type Culture Collection were routinely passaged in RPMI-1640 plus 10% fetal bovine serum (FBS) and were subcultured into 35 mm diameter wells for experiments. […] The LDS medium supplement was prepared according to Cham et al., J. Lipid Res., 17: 176-181, (1976). After about 16 hours in LDS containing media, test compounds were added in dimetthylsulfoxide vehicle (0.5% v/v final conc.) for the period of time indicated in the data (generally 4 hours). Cholesterol synthesis was then directly determined by the incorporation of 2-14C-acetate (1.8-3.0 mCi/mmol) into digitonin-precipitable sterols essentially as described for the rat hepatocyte methol above. Greater than 97% of the radiolabelled sterol isolated by this procedure was cholesterol as judged by HPLC. Percent inhibition was calculated from the average of duplicates or triplicates vs. controls receiving vehicle.
The human hepatoma HepG2 cell culture model was employed to compare the intrinsic activities of the tocotrienols. HepG2 cells were incubated with the indicated compounds for about 4 hours at 10 µM. Cholestrol synthesis was assayed by 14C-acetate incorporation and HMG-CoA reductase suppression was assayed in the isolated microsomal fraction. Cholesterol synthesis inhibition was assayed by 14C-acetate incorporation after preincubation of HepG2 cells with the compounds for about 2 hours or about 4 hours (Example IV). […] As the data in Figure 1 indicate, gamma-tocotrienol has an even greater relative potency compared to alpha-tocotrienol in the HepG2 cell model than in rat hepatocytes. The IC50s from these studies are given in Table 3, in which it can be seen that the intrinsic potency of gamma-tocotrienol is over 30-fold greater than that of alpha-tocotrienol.

The next test deals with platelet aggregation. As to the kind of experiment: Rabbit biolaser ear chamber antithrombotic model. Format: in vivo. As to conditions: 100mg/kg oral. Here is the method:
The antithrombotic properties of gamma-tocotrienol were evaluated in a rabbit biolaser ear chamber model. Fasted rabbits were orally dosed with either vehicle or vehicle plus gamma-tocotrienol at 100mg/kg. An erythrocyte contained within a capillary, near the ear surface, is ruptured with a laser shot, thereby releasing platelet aggregating ADP. gamma-Tocotrienol inhibited platelet aggregation 37% at about 2 hours after oral dosing, 44% after about 4 hours and 25% after about 6 hours as measured by averaging the mean thrombus area over 10 trials.

Test [3] in a line: Pure gamma-tocotrienol capsules in hypercholesterolemic human subjects. The note with it: capsules 50 mg/capsule, after 4 weeks of feeding; serum cholesterol levels 302.5 mg/dl. Format: in vivo.

Read-outs that look alike come from different tables or passages of the source.

In the case of `CC(C)=CCC/C(C)=C/CC/C(C)=C/CCC1(C)CCc2cc(O)c(C)c(C)c2O1` (stereo not shown) [γ-Tocotrienol], in test [1], the “times more active than alpha-tocotrienol” value is “at least 5 times”. The “Rel. Potency” value in test [2] (2 hr. Incubation) and in test [2] (4 hr. Incubation) was 1.0 in each case. The IC50 in test [2] (2 hr. Incubation) was found to be 5.9 µM; in test [2] (4 hr. Incubation) it was 2.8 µM. In test [2] (from IC50s of Table 3), the “intrinsic potency greater than that of alpha-tocotrienol” value is listed as “over 30 fold”. The inhibited platelet aggregation with platelet aggregation (about 2 hours after dosing, mean thrombus area over 10 trials) is listed as 37%; in the test on platelet aggregation (about 4 hours after dosing), 44%; with platelet aggregation (about 6 hours after dosing) it was 25%. Also, the “decrease in serum cholesterol levels” value in test [3] was 35%.
